# According to patent US20100197687A1, “Indoles Useful in the Treatment of Inflammation” (priority 2005, published 2010):
# Counter-ions that a name gives are not always drawn.
# Molecular target: T1, mPGES-1 (Homo sapiens, UniProt O14684)
# T1 construct: made in house; host or cells: E. coli
# T1 sequence (O14684 1-152): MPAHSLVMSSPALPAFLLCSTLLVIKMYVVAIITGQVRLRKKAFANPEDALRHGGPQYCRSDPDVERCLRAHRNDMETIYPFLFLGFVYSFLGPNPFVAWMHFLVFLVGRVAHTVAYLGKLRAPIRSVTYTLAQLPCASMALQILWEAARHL
# Assay: mPGES-1 biological test (conversion of PGH2 to PGE2, HPLC read-out)
# Assay type: biochemical
# Conditions: mPGES-1 expressed in E. coli, membrane fraction; 25 min pre-incubation with inhibitor, 60 s with PGH2, room temperature; read-out: IC50 (inhibition of mPGES-1)
# Method: In the assay mPGES-1 catalyses the reaction where the substrate PGH2 is converted to PGE2. mPGES-1 is expressed in E. coli and the membrane fraction is dissolved in 20 mM NaPi-buffer pH 8.0 and stored at −80° C. In the assay mPGES-1 is dissolved in 0.1M KPi-buffer pH 7.35 with 2.5 mM glutathione. The stop solution consists of H2O/MeCN (7/3), containing FeCl2 (25 mM) and HCl (0.15 M). The assay is performed at room temperature in 96-well plates. Analysis of the amount of PGE2 is performed with reversed phase HPLC (Waters 2795 equipped with a 3.9×150 mm C18 column). The mobile phase consists of H2O/MeCN (7/3), containing TFA (0.056%), and absorbance is measured at 195 nm with a Waters 2487 UV-detector.
# The following is added chronologically to each well: • 1. 100 μL mPGES-1 in KPi-buffer with glutathione. Total protein concentration: 0.02 mg/mL. • 2. 1 μL inhibitor in DMSO. Incubation of the plate at room temperature for 25 minutes. • 3. 4 μL of a 0.25 mM PGH2 solution. Incubation of the plate at room temperature for 60 seconds. • 4. 100 μL stop solution. • 180 μL per sample is analyzed with HPLC.
row,Structure (SMILES),IC50 [nM]
1,"CC(C)Oc1ccc(-n2c(C(=O)O)c(CN3CCOCC3)c3cc(-c4ccc(C(C)(C)C)cc4)ccc32)cc1 [Example 2, 5-(4-tert-Butylphenyl)-1-(4-isopropoxyphenyl)-3-morpholin-4-ylmethylindole-2-carboxylic acid]",2600
2,"CC(C)Oc1ccc(-n2c(C(=O)O)c(CN(C)C)c3cc(-c4ccc(C(C)(C)C)cc4)ccc32)cc1 [Example 8, 5-(4-tert-Butylphenyl)-3-dimethylaminomethyl-1-(4-isopropoxyphenyl)indole-2-carboxylic acid]",560
3,"CC(C)(C)c1ccc(-c2ccc3c(c2)cc(CCC(=O)O)n3-c2ccc(OC3CCCC3)cc2)cc1 [Example 29, 3-[5-(4-tert-Butylphenyl)-1-(4-cyclopentyloxyphenyl)indol-2-yl]-propionic acid]",780

# The remaining compounds from weak to strong by IC50, led by results:
row,IC50 [nM],Structure (SMILES)
1,3200,"CC(C)Oc1ccc(-n2c(CC(=O)O)cc3cc(Oc4ccc(Cl)cc4)ccc32)cc1 [Example 32, [5-(4-Chlorophenoxy)-1-(4-isopropoxyphenyl)indol-2-yl]acetic acid]"
2,2100,"CC(C)Oc1ccc(-n2c(C(=O)O)c(CNC(CO)CO)c3cc(-c4ccc(C(F)(F)F)cn4)ccc32)cc1 [Example 9, 3-[(1,3-dihydroxypropan-2-ylamino)methyl]-1-(4-isopropoxyphenyl)-5-(5-trifluoromethylpyridin-2-yl)indole-2-carboxylic acid dihydrochloride]"
